Measurements taken from publication PMC10916402, “Meropenem-ANT3310, a unique β-lactam-β-lactamase inhibitor combination with expanded antibacterial spectrum against Gram-negative pathogens including carbapenem-resistant Acinetobacter baumannii” (Antimicrobial Agents and Chemotherapy, 2024).
Converted amounts (≈) assume the structure as drawn. Where two headings read alike, the source gives them in different places.

Columns and labels:
[1] = system: KPC-producing Enterobacterales (KPC-CRE); assay: organism not typed; format: cell-based
Experimental: (§1) All isolates were randomly selected from the frozen culture collection of IHMA collected in 2018 and 2019. Matrix-assisted laser desorption ionization-time of flight mass spectrometry was used to confirm the identity of the organisms tested (Bruker Daltonics, Bremen, Germany).
(§2) MICs for all antimicrobial agents were determined at IHMA by broth microdilution in accordance with both CLSI ([17]) and EUCAST ([18]) guidelines. Microtiter panels were prepared by IHMA and stored at −70°C in cation-adjusted Mueller Hinton broth (CAMHB) (Becton Dickinson). Iron-depleted CAMHB was used to test cefiderocol. Panels containing ANT3310 were prepared fresh on the day of testing. […] MIC values corresponded to the first well with no visible growth. Quality control testing was performed on each day of testing with E. coli ATCC 25922, P. aeruginosa ATCC 27853, K. pneumoniae ATCC 700603 and BAA 1705, and A. baumannii NCTC 13304. MICs were interpreted using 2023 CLSI ([17]) and EUCAST ([18]) BPs.

[2] = system: OXA-producing Enterobacterales (OXA-CRE); assay: organism not typed; format: cell-based
Experimental: as §1, §2

[3] = system: carbapenem-resistant Acinetobacter baumannii (CRAB) clinical isolates; assay: Broth microdilution MIC, CRAB isolates; format: cell-based; details: for CLSI % Res / CLSI % Sus: CLSI BP; for CLSI % Res: for MEM-ANT3310 % at ≥16 µg/mL; for CLSI % Sus: for MEM-ANT3310 % inhibited at ≤8 µg/mL; for EUCAST % Res / EUCAST % Sus: EUCAST BP; for MIC50 / MIC90: Acinetobacter baumannii; for MIC50: read-out: MIC50; for MIC90: read-out: MIC90
Experimental: as §1, §2

[4] = system: A. baumannii clinical isolates; assay: Broth microdilution MIC, A. baumannii clinical isolates; format: cell-based, Acinetobacter baumannii; details: for CLSI % Res / CLSI % Sus: CLSI BP; for CLSI % Res: for MEM-ANT3310 % at ≥16 µg/mL; for CLSI % Sus: for MEM-ANT3310 % inhibited at ≤8 µg/mL; for EUCAST % Res / EUCAST % Sus: EUCAST BP; for MIC50 / MIC90: Acinetobacter baumannii; for MIC50: read-out: MIC50; for MIC90: read-out: MIC90
Experimental: as §1, §2

[5] = 180 KPC-producing Enterobacterales, EUCAST BP
[6] = 252 OXA-producing Enterobacterales, EUCAST BP
[7] = 2018 Global collection, CRAB (MEM MICs >4 µg/mL), N 363
[8] = 2018 Global collection, CRAB, N 363
[9] = 2018 Global collection, All A. baumannii, N 500
[10] = A. baumannii, one or both of the 2018/2019 collections
[11] = 2019 Global collection, CRAB (MEM MICs >4 µg/mL), N 340
[12] = 2019 Global collection, CRAB, N 340
[13] = 2019 Global collection, All A. baumannii, N 405

For NCC[C@H](O)C(=O)N[C@@H]1C[C@H](N)[C@@H](O[C@H]2O[C@H](CN)[C@@H](O)[C@H](O)[C@H]2O)[C@H](O)[C@H]1O[C@H]1O[C@H](CO)[C@@H](O)[C@H](N)[C@H]1O [Amikacin, amikacin], which MIC50 [1] is on record?
The MIC50 was 16 µg/mL (≈ 27.3 µM).

What about the MIC90 [1] of the same compound?
The MIC90 was 64 µg/mL (≈ 109 µM).

What about the “CLSI % Res” value ([1]; 180 KPC-producing Enterobacterales, CLSI BP, for MEM-ANT3310 % at ≥16 µg/mL) of the same compound?
The value was 11.7%.

And the “CLSI % Sus” value ([1]; 180 KPC-producing Enterobacterales, CLSI BP, for MEM-ANT3310 % inhibited at ≤8 µg/mL)?
The value was 57.8%.

What about the “EUCAST % Res” value [1, 5] of the same compound?
The value was 54.4%.

And the “EUCAST % Sus” value [1, 5]?
Its value is 45.6%.

What about the MIC50 [2] of the same compound?
Its MIC50 is 16 µg/mL (≈ 27.3 µM).

What about the MIC90 [2] of the same compound?
The MIC90 was greater than 64 µg/mL.

And the “CLSI % Res” value ([2]; 252 OXA-producing Enterobacterales, CLSI BP, for MEM-ANT3310 % at ≥16 µg/mL)?
Its value is 32.1%.

And the “CLSI % Sus” value ([2]; 252 OXA-producing Enterobacterales, CLSI BP, for MEM-ANT3310 % inhibited at ≤8 µg/mL)?
Its value is 59.5%.

What about the “EUCAST % Res” value [2, 6] of the same compound?
Its value is 52.0%.

And the “EUCAST % Sus” value [2, 6]?
The value was 48.0%.

What about the “Number of isolates inhibited at MIC of 0.5 µg/mL” value [3, 7] of the same compound?
The value was 1.

What about the “Number of isolates inhibited at MIC of 1 µg/mL” value [3, 7] of the same compound?
Its value is 9.

What about the “Number of isolates inhibited at MIC of 2 µg/mL” value [3, 7] of the same compound?
Its value is 25.

And the “Number of isolates inhibited at MIC of 4 µg/mL” value [3, 7]?
Its value is 20.

What about the “Number of isolates inhibited at MIC of 8 µg/mL” value [3, 7] of the same compound?
The value was 5.

And the “Number of isolates inhibited at MIC of 16 µg/mL” value [3, 7]?
The value was 10.

And the “Number of isolates inhibited at MIC of 32 µg/mL” value [3, 7]?
The value was 11.

What about the “Number of isolates inhibited at MIC of >32 µg/mL” value [3, 7] of the same compound?
The value was 282.

And the “CLSI % Res” value [3, 8]?
The value was 77.7%.

What about the “CLSI % Sus” value [3, 8] of the same compound?
Its value is 19.3%.

What about the “EUCAST % Res” value [3, 8] of the same compound?
The value was 83.5%.

What about the “EUCAST % Sus” value [3, 8] of the same compound?
The value was 16.5%.

What about the MIC50 [3, 7] of the same compound?
The MIC50 was greater than 32 µg/mL.

And the MIC90 [3, 7]?
Its MIC90 is greater than 32 µg/mL.

What about the “Number of isolates inhibited at MIC of 0.5 µg/mL” value [4, 9] of the same compound?
The value was 2.

What about the “Number of isolates inhibited at MIC of 1 µg/mL” value [4, 9] of the same compound?
The value was 42.

What about the “Number of isolates inhibited at MIC of 2 µg/mL” value [4, 9] of the same compound?
Its value is 96.

And the “Number of isolates inhibited at MIC of 4 µg/mL” value [4, 9]?
The value was 33.

What about the “Number of isolates inhibited at MIC of 8 µg/mL” value [4, 9] of the same compound?
Its value is 12.

What about the “Number of isolates inhibited at MIC of 16 µg/mL” value [4, 9] of the same compound?
The value was 11.

What about the “Number of isolates inhibited at MIC of 32 µg/mL” value [4, 9] of the same compound?
Its value is 13.

And the “Number of isolates inhibited at MIC of >32 µg/mL” value [4, 9]?
The value was 291.

And the “CLSI % Res” value [4, 9]?
The value was 58.2%.

What about the “CLSI % Sus” value [4, 9] of the same compound?
Its value is 39.2%.

And the “EUCAST % Res” value [4, 9]?
The value was 63%.

And the “EUCAST % Sus” value [4, 9]?
The value was 37%.

And the MIC50 [4, 9]?
Its MIC50 is greater than 32 µg/mL.

What about the MIC90 [4, 9] of the same compound?
Its MIC90 is greater than 32 µg/mL.

And the MIC90 [4, 10]?
Its MIC90 is no less than 32 µg/mL.

What does the source list for C[C@H]1COc2c(N3CCN(C)CC3)c(F)cc3c(=O)c(C(=O)O)cn1c23 [Levofloxacin, levofloxacin]?
Number of isolates inhibited at MIC of 2 µg/mL [3, 11]: 9; Number of isolates inhibited at MIC of 4 µg/mL [3, 11]: 29; Number of isolates inhibited at MIC of 8 µg/mL [3, 11]: 92; Number of isolates inhibited at MIC of 16 µg/mL [3, 11]: 97; CLSI % Res [3, 12]: 86.2%; CLSI % Sus [3, 12]: 5.3%; EUCAST % Res [3, 12]: 97.3%; EUCAST % Sus [3, 12]: 2.7%; Number of isolates inhibited at MIC of >16 µg/mL ([3]; 2019 Global collection, CRAB, N 340, footnote c): 104^c; Number of isolates inhibited at MIC of ≤0.25 µg/mL ([3]; 2019 Global collection, CRAB, N 340, footnote d): 9^d; MIC50 [3, 11]: 16 µg/mL (≈ 44.3 µM); MIC90 [3, 11]: > 16 µg/mL; Number of isolates inhibited at MIC of 0.5 µg/mL [4, 13]: 1; Number of isolates inhibited at MIC of 1 µg/mL [4, 13]: 1; Number of isolates inhibited at MIC of 2 µg/mL [4, 13]: 10; Number of isolates inhibited at MIC of 4 µg/mL [4, 13]: 33; Number of isolates inhibited at MIC of 8 µg/mL [4, 13]: 96; Number of isolates inhibited at MIC of 16 µg/mL [4, 13]: 99; CLSI % Res [4, 13]: 73.8%; CLSI % Sus [4, 13]: 18%; EUCAST % Res [4, 13]: 84.4%; EUCAST % Sus [4, 13]: 15.3%; Number of isolates inhibited at MIC of >16 µg/mL ([4]; 2019 Global collection, All A. baumannii, N 405, footnote c): 104^c; Number of isolates inhibited at MIC of ≤0.25 µg/mL ([4]; 2019 Global collection, All A. baumannii, N 405, footnote d): 61^d; MIC50 [4, 13]: 16 µg/mL (≈ 44.3 µM); MIC90 [4, 13]: > 16 µg/mL; MIC90 [4, 10]: ≥ 32 µg/mL

How did the MIC50 [1] turn out when CN(C)[C@@H]1C(O)=C(C(N)=O)C(=O)[C@@]2(O)C(O)=C3C(=O)c4c(O)c(NC(=O)CN5CCCC5)cc(F)c4C[C@H]3C[C@@H]12 [Eravacycline, eravacycline] was run?
The MIC50 was 0.5 µg/mL (≈ 0.895 µM).

What about the MIC90 [1] of the same compound?
Its MIC90 is 2 µg/mL (≈ 3.58 µM).

What about the MIC50 [2] of the same compound?
Its MIC50 is 1 µg/mL (≈ 1.79 µM).

What about the MIC90 [2] of the same compound?
The MIC90 was 2 µg/mL (≈ 3.58 µM).

What about the “Number of isolates inhibited at MIC of 0.25 µg/mL” value [3, 7] of the same compound?
Its value is 43.

And the “Number of isolates inhibited at MIC of 0.5 µg/mL” value [3, 7]?
Its value is 73.

What about the “Number of isolates inhibited at MIC of 1 µg/mL” value [3, 7] of the same compound?
The value was 186.

And the “Number of isolates inhibited at MIC of 2 µg/mL” value [3, 7]?
The value was 53.

And the “Number of isolates inhibited at MIC of 4 µg/mL” value [3, 7]?
The value was 3.

What about the “Number of isolates inhibited at MIC of ≤0.125 µg/mL” value [3, 7] of the same compound?
The value was 5.

And the MIC50 [3, 7]?
Its MIC50 is 1 µg/mL (≈ 1.79 µM).

What about the MIC90 [3, 7] of the same compound?
The MIC90 was 2 µg/mL (≈ 3.58 µM).

What about the “Number of isolates inhibited at MIC of 0.25 µg/mL” value [4, 9] of the same compound?
The value was 66.

And the “Number of isolates inhibited at MIC of 0.5 µg/mL” value [4, 9]?
Its value is 83.

And the “Number of isolates inhibited at MIC of 1 µg/mL” value [4, 9]?
The value was 194.

And the “Number of isolates inhibited at MIC of 2 µg/mL” value [4, 9]?
The value was 55.

What about the “Number of isolates inhibited at MIC of 4 µg/mL” value [4, 9] of the same compound?
The value was 3.

And the “Number of isolates inhibited at MIC of ≤0.125 µg/mL” value [4, 9]?
The value was 99.

And the MIC50 [4, 9]?
The MIC50 was 1 µg/mL (≈ 1.79 µM).

What about the MIC90 [4, 9] of the same compound?
Its MIC90 is 2 µg/mL (≈ 3.58 µM).

And the MIC90 [4, 10]?
Its MIC90 is 2 µg/mL (≈ 3.58 µM).
